Results as given in patent US11787780B2 (CORCEPT THERAPEUTICS INCORPORATED, priority 2020, dated 2023).

Tests used:
[1] = biological target: glucocorticoid receptor (GR) recombinant ligand binding domain (LBD) (Homo sapiens (Human), UniProt P04150); assay: GR binding fluorescence polarisation (FP) assay; conditions: displacement of fluorescently tagged ligand
Protocol: Binding of test compounds to the glucocorticoid receptor (GR) is determined using a fluorescence polarisation (FP) assay utilising a recombinant ligand binding domain (LBD) of GR. The test compounds are assessed by their ability to displace a fluorescently tagged ligand and detection of the resulting decrease in fluorescence polarisation.

[2] = test system: induction of TAT by dexamethasone in HepG2 cells; assay: Hep G2 TAT assay (inhibition of dexamethasone-induced TAT); type: cell-based, human; conditions: challenge of 100 nM dexamethasone, IC50 converted to Ki by Cheng and Prusoff equation

Chain of glucocorticoid receptor (GR) recombinant ligand binding domain (LBD) (P04150 524-758): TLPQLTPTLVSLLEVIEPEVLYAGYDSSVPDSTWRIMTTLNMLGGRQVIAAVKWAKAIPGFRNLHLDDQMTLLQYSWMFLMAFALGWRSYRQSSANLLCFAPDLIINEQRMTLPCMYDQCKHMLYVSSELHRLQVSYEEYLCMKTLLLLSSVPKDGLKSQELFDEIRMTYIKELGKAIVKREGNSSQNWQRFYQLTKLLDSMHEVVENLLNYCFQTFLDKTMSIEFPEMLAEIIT

SMILES	IC50 [1] [nM]	Ki [2] [nM]
CCCn1cc(S(=O)(=O)N2CCC(COC)(c3cc4cnn(-c5ccc(F)cc5)c4cc3C)CC2)cn1 [Example 24, 1-(4-fluorophenyl)-5-(4-(methoxymethyl)-1-((1-propyl-1H-pyrazol-4-yl)sulfonyl)piperidin-4-yl)-6-methyl-1H-indazole]	84	1510
CCCn1cc(S(=O)(=O)N2CCC(Cc3ccccc3)(c3cc4cnn(-c5ccc(F)cc5)c4cc3C)CC2)cn1 [Example 25, 5-(4-benzyl-1-((1-propyl-1H-pyrazol-4-yl)sulfonyl)piperidin-4-yl)-1-(4-fluorophenyl)-6-methyl-1H-indazole]	67	29
CNS(=O)(=O)C1CCN(c2cc3cnn(-c4ccc(F)cc4)c3cc2C)C1 (centres unmarked) [Example 28, 1-(1-(4-fluorophenyl)-6-methyl-1H-indazol-5-yl)-N-methylpyrrolidine-3-sulfonamide]	114	1060
Cc1cc2c(cnn2-c2ccc(F)cc2)cc1C1CCN(C(=O)NC(C)C)CC1 [Example 32, 4-(1-(4-fluorophenyl)-6-methyl-1H-indazol-5-yl)-N-isopropylpiperidine-1-carboxamide]	70	400
C[C@@H]1CN(c2ccc3c(cnn3-c3ccc(F)cc3)c2)CCN1S(=O)(=O)c1cnn(CC2CC2)c1 [Example 39]	81	242
Cc1cc2c(cnn2-c2ccc(F)cc2)cc1N1CCN(S(=O)(=O)c2cnn(CC3CC3)c2)[C@H](C)C1 [Example 43]	95	467
C[C@@H]1CN(c2ccc3c(cnn3-c3ccc(F)cc3)c2)CCN1S(=O)(=O)c1ccnn1C [Example 65]	334	1480
CCCn1cc(S(=O)(=O)N2C3CC2CN(c2cc4cnn(-c5ccc(F)cc5)c4cc2C)C3)cn1 [Example 73]	151	306
Cc1cc2c(cnn2-c2cccc(C(=O)NC3CCOC3)c2)cc1N1CCN(S(C)(=O)=O)C2(CC2)C1 (centres unmarked) [Example 85]	163	1420
CCCn1cc(S(=O)(=O)N2CCN(c3cc4cnn(-c5ccc(F)cc5)c4cc3C)C(c3ccccc3)C2)cn1 (centres unmarked) [Example 86]	162	864
CCCn1cc(S(=O)(=O)N2CC3CCN(c4cc5cnn(-c6ccc(F)cc6)c5cc4C)C3C2)cn1 (centres unmarked) [Example 91]	227	336
Cc1cc2c(cnn2-c2ccc(F)cc2)cc1N1CCN(C(=O)c2cnn(C)c2)C2(CC2)C1 [Example 100]	233	1200
Cc1cc2c(cnn2-c2ccc(F)cc2)cc1N1CCN(C(=O)c2ccc(F)c(F)c2)C2(CC2)C1 [Example 101]	118	823
CCOC(=O)N1CCN(c2cc3cnn(-c4ccc(F)cc4)c3cc2C)CC12CC2 [Example 103]	135	1710
Cc1cc2c(cnn2-c2ccc(F)cc2)cc1N1CCC[C@H](N(C)S(C)(=O)=O)C1 [Example 123]	73	284
Cc1cc2c(cnn2-c2ccc(F)cc2)cc1N1CCC[C@H](N(C)S(=O)(=O)c2cnn(C)c2)C1 [Example 124]	58	216
CCCn1cc(S(=O)(=O)N2CC=C(c3cc4cnn(-c5ccc(F)cc5)c4cc3C(C)C)CC2)cn1 [Example 141]	4220	487
CS(=O)(=O)N1CC=C(c2cc3cnn(-c4ccc(F)cc4)c3cc2Cl)CC1 [Example 142]	429	715
CCCn1cc(S(=O)(=O)N2CC=C(c3cc4cnn(-c5ccc(F)cc5)c4cc3Cl)CC2)cn1 [Example 143]	384	32
CCCn1cc(S(=O)(=O)N2CC=C(c3cc4cnn(-c5ccc(F)cc5)c4cc3OC(F)F)CC2)cn1 [Example 144]	265	180
Cc1cc2c(cnn2-c2ccc(F)cc2)cc1C1(Cc2ccccc2)CCN(S(=O)(=O)c2cncs2)C1 (centres unmarked) [Example 154]	269	14

Now those with a lower IC50 [1], led by results:

IC50 [1] [nM]	SMILES	Ki [2] [nM]
8	Cc1cc2c(cnn2-c2ccc(F)cc2)cc1C1(Cc2ccccc2)CCN(S(C)(=O)=O)C1 (centres unmarked) [Example 16, 5-(3-benzyl-1-(methylsulfonyl)pyrrolidin-3-yl)-1-(4-fluorophenyl)-6-methyl-1H-indazole]	32
52	CCCn1cc(S(=O)(=O)N2CC[C@@](Cc3ccccc3)(c3cc4cnn(-c5ccc(F)cc5)c4cc3C)C2)cn1 [Example 17, (S)-5-(3-benzyl-1-((1-propyl-1H-pyrazol-4-yl)sulfonyl)pyrrolidin-3-yl)-1-(4-fluorophenyl)-6-methyl-1H-indazole]	23
24	CCCn1cc(S(=O)(=O)N2CC[C@](Cc3ccccc3)(c3cc4cnn(-c5ccc(F)cc5)c4cc3C)C2)cn1 [Example 18, (R)-5-(3-benzyl-1-((1-propyl-1H-pyrazol-4-yl)sulfonyl)pyrrolidin-3-yl)-1-(4-fluorophenyl)-6-methyl-1H-indazole]	9
8	Cc1cc2c(cnn2-c2ccc(F)cc2)cc1C1(Cc2ccccc2)CCN(C)C1 (centres unmarked) [Example 20, 5-(3-benzyl-1-methylpyrrolidin-3-yl)-1-(4-fluorophenyl)-6-methyl-1H-indazole]	236
9	CCCn1cc(NS(=O)(=O)C2CCN(c3cc4cnn(-c5ccc(F)cc5)c4cc3C)C2)cn1 (centres unmarked) [Example 29, 1-(1-(4-fluorophenyl)-6-methyl-1H-indazol-5-yl)-N-(1-propyl-1H-pyrazol-4-yl)pyrrolidine-3-sulfonamide]	210
27	CCCn1cc(S(=O)(=O)N2CCN(c3ccc4c(cnn4-c4ccc(F)cc4)c3)CC23CC3)cn1 [Example 50]	480
32	Cc1cc2c(cnn2-c2ccc(F)cc2)cc1N1CCN(S(C)(=O)=O)C2(CC2)C1 [Example 58]	321
19	Cc1cc2c(cnn2-c2ccc(F)cc2)cc1N1CCN(S(=O)(=O)c2cnn(C)c2)C2(CC2)C1 [Example 59]	246
8	CCCn1cc(S(=O)(=O)N2CCN(c3cc4cnn(-c5ccc(F)cc5)c4cc3C)CC23CC3)cn1 [Example 60]	39
25	CCCn1cc(S(=O)(=O)N2C[C@H](C)N(c3ccc4c(cnn4-c4ccc(F)cc4)c3)C[C@@H]2C)cn1 [Example 61]	205
18	Cc1cc2c(cnn2-c2ccc(F)cc2)cc1N1CCN(S(=O)(=O)c2cnn(CC(F)(F)F)c2)C2(CC2)C1 [Example 67]	33
35	Cc1cc2c(cnn2-c2ccc(F)cc2)cc1N1CCN(S(=O)(=O)c2cnn(C(C)C)n2)C2(CC2)C1 [Example 68]	30
28	COc1cc2c(cnn2-c2ccc(F)cc2)cc1N1CCN(S(C)(=O)=O)C2(CC2)C1 [Example 70]	1580
10	CCCn1cc(S(=O)(=O)N2CCN(c3cc4cnn(-c5cccc(C(=O)NC6CCOC6)c5)c4cc3C)CC23CC3)cn1 (centres unmarked) [Example 84]	103
45	Cc1cc2c(cnn2-c2ccc(F)cc2)cc1N1CCC2CN(S(C)(=O)=O)CC21 (centres unmarked) [Example 90]	343
52	CCCn1cc(S(=O)(=O)N2CCC3(CCN(c4cc5cnn(-c6ccc(F)cc6)c5cc4C)CC3)C2)cn1 [Example 94]	95

IC50 [1] [nM]	SMILES	Ki [2] [nM]
3	CCCn1cc(S(=O)(=O)NC2(C)CCN(c3cc4cnn(-c5ccc(F)cc5)c4cc3C)C2)cn1 (centres unmarked) [Example 120]	218
40	COCCN([C@@H]1CCN(c2cc3cnn(-c4ccc(F)cc4)c3cc2C)C1)S(=O)(=O)c1cnn(C)c1 [Example 121]	120
14	CCCn1cc(S(=O)(=O)N(CCOC)[C@@H]2CCN(c3cc4cnn(-c5ccc(F)cc5)c4cc3C)C2)cn1 [Example 122]	155
5	CCCn1cc(S(=O)(=O)NC2(C)CCN(c3cc4cnn(-c5ccc(F)cc5)c4cc3C)CC2)cn1 [Example 129]	66
8	Cc1cc2c(cnn2-c2ccc(F)cc2)cc1N1CCC(C)(NS(C)(=O)=O)CC1 [Example 130]	144
4	Cc1cc2c(cnn2-c2ccc(F)cc2)cc1N1CCC(C)(NS(=O)(=O)c2cnn(C)c2)CC1 [Example 131]	98
13	Cc1cc2c(cnn2-c2ccc(F)cc2)cc1N1CCC(C)(NS(=O)(=O)c2cnn(CC3CC3)n2)CC1 [Example 132]	34
7	Cc1cc2c(cnn2-c2ccc(F)cc2)cc1N1CCC(C)(NS(=O)(=O)c2cnn(CC3CC3)c2)CC1 [Example 133]	50
42	CCCn1cc(S(=O)(=O)N2CCC(Cc3ccccc3)(c3cc4cnn(-c5ccc(F)cc5)c4cc3C)C2)cn1 (centres unmarked) [Example 147]	12
24	Cc1cc2c(cnn2-c2ccc(F)cc2)cc1C1(Cc2cccnc2)CCN(S(C)(=O)=O)C1 (centres unmarked) [Example 148]	331
13	CCCn1cc(S(=O)(=O)N2CCC(Cc3cccnc3)(c3cc4cnn(-c5ccc(F)cc5)c4cc3C)C2)cn1 (centres unmarked) [Example 149]	108
13	Cc1cc2c(cnn2-c2ccc(F)cc2)cc1C1(Cc2ccccn2)CCN(S(C)(=O)=O)C1 (centres unmarked) [Example 150]	169
17	Cc1cc2c(cnn2-c2ccc(F)cc2)cc1C1(Cc2ccccn2)CCN(S(=O)(=O)c2cnn(C)c2)C1 (centres unmarked) [Example 151]	161
11	Cc1cc2c(cnn2-c2ccc(F)cc2)cc1C1(Cc2ccccc2)CCN(S(=O)(=O)c2cnn(C)c2)C1 (centres unmarked) [Example 153]	26
13	Cc1cc2c(cnn2-c2ccc(F)cc2)cc1C1(Cc2ccccc2)CCN(S(=O)(=O)C2CC2)C1 (centres unmarked) [Example 155]	16
